What was measured:
GTPase KRas [1] = biological target: GTPase KRas (Homo sapiens, UniProt P01116, G12D); assay: Inhibition of bodipy-loaded KRAS G12D mutant (unknown origin) assessed as GDP-GTP exchange preincubated for 4 hrs followed by GppNHp and SOS1 addition and measured after 2 hrs by fluorescence based plate reader analysis
[2] = Inhibition of ERK phosphorylation in KRAS G12D mutant dependent human HPAF-II cells incubated for 2 hrs by HTRF assay; type: cell-based
[3] = Inhibition of ERK phosphorylation in KRAS G12D mutant dependent human HPAF-II cells incubated for 2 hrs with human whole blood containing compound by HTRF assay; type: cell-based
GTPase KRas [4] = biological target: GTPase KRas (Homo sapiens, UniProt P01116); assay: Binding affinity to KRAS (unknown origin) assessed as dissociation constant by SPR analysis
Chain of GTPase KRas (Homo sapiens, UniProt P01116) (P01116 whole entry): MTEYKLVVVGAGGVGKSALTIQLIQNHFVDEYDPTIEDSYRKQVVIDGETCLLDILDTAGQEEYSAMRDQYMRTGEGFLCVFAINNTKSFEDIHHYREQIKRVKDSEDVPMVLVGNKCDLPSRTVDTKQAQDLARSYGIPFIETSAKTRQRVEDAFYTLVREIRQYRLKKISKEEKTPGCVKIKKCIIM

[5] = Apparent permeability across apical to basolateral side in human Caco-2 cells at 50 uM incubated for 120 mins by LC-MS analysis; type: ADME, cell-based
[6] = Intrinsic clearance in human liver microsomes at 1 uM measured upto 30 mins in presence of NADPH by LC/MS analysis; type: ADME, Microsome; conditions: read-out: CLH (converted)
Primates [7] = assay: Clearance in Non human primate assessed as hepatic blood flow at 2.0 mg/kg, po or 0.5 mg/kg, iv; type: ADME, organism-based; conditions: in vivo
[8] = Oral bioavailability in Non human primate at 2.0 mg/kg; type: ADME, organism-based; conditions: primates, in vivo
Primates [9] = assay: Clearance in Non human primate at 2.0 mg/kg, po or 0.5 mg/kg, iv; type: ADME, organism-based; conditions: in vivo
[10] = Cmax in Sprague-Dawley rat at 3 mg/kg, po or 1 mg/kg, iv measured after 24 hrs by LC-MS/MS analysis; type: ADME, organism-based; conditions: in vivo
[11] = Half-life in Sprague-Dawley rat at 3 mg/kg, po or 1 mg/kg, iv measured after 24 hrs by LC-MS/MS analysis; type: ADME, organism-based; conditions: in vivo
[12] = Clearance in Sprague-Dawley rat assessed as hepatic blood flow at 3 mg/kg, po or 1 mg/kg, iv measured after 24 hrs by LC-MS/MS analysis; type: ADME, organism-based; conditions: in vivo
[13] = Half-life in Non human primate at 2.0 mg/kg, po or 0.5 mg/kg, iv; type: ADME, organism-based; conditions: primates, in vivo
[14] = Oral bioavailability in Sprague-Dawley rat at 3 mg/kg measured after 24 hrs by LC-MS/MS analysis; type: ADME, organism-based; conditions: in vivo
Primates [15] = assay: AUC in Non human primate at 2.0 mg/kg, po or 0.5 mg/kg, iv; type: ADME, organism-based; conditions: in vivo
[16] = AUC in Sprague-Dawley rat at 3 mg/kg, po or 1 mg/kg, iv measured after 24 hrs by LC-MS/MS analysis; type: ADME, organism-based; conditions: in vivo
[17] = Cmax in Non human primate at 2.0 mg/kg, po or 0.5 mg/kg, iv; type: ADME, organism-based; conditions: primates, in vivo
[18] = In vivo inhibition of ERK phosphorylation in tumor of mouse xenografted with HPAC cells at 6 mg/kg, po measured after 4 hrs relative to control; type: functional
[19] = Half-life in Non human primate at 2.0 mg/kg, po or 1 mg/kg, iv; type: ADME, organism-based; conditions: primates, in vivo
[20] = Half-life in Sprague-Dawley rat at 3 mg/kg, po or 0.1 mg/kg, iv measured after 24 hrs by LC-MS/MS analysis; type: ADME, organism-based; conditions: in vivo
[21] = AUC in Sprague-Dawley rat at 3 mg/kg, po or 0.1 mg/kg, iv measured after 24 hrs by LC-MS/MS analysis; type: ADME, organism-based; conditions: in vivo
[22] = Cmax in Sprague-Dawley rat at 3 mg/kg, po or 0.1 mg/kg, iv measured after 24 hrs by LC-MS/MS analysis; type: ADME, organism-based; conditions: in vivo
[23] = Clearance in Sprague-Dawley rat assessed as hepatic blood flow at 3 mg/kg, po or 0.1 mg/kg, iv measured after 24 hrs by LC-MS/MS analysis; type: ADME, organism-based; conditions: in vivo
Primates [24] = assay: Clearance in Non human primate assessed as hepatic blood flow at 2.0 mg/kg, po or 1 mg/kg, iv; type: ADME, organism-based; conditions: in vivo
[25] = Cmax in Non human primate at 2.0 mg/kg, po or 1 mg/kg, iv; type: ADME, organism-based; conditions: primates, in vivo
[26] = AUC in Non human primate at 2.0 mg/kg, po or 1 mg/kg, iv; type: ADME, organism-based; conditions: primates, in vivo
[27] = Efflux ratio of apparent permeability in human Caco-2 cells at 50 uM incubated for 120 mins by LC-MS analysis; type: ADME, cell-based

SMILES	IC50 (GTPase KRas [1])	IC50 [2]	IC50 [3]	Kd (GTPase KRas [4])	Papp A→B at 2 h, 50 µM [5]	hepatic clearance at 1 µM [6]	further results
CN(C)C(=O)CCc1cc2c(N3CC(C)(N(C)C)C3)nc3c(F)c(-c4cc(O)cc5ccccc45)c(CCC#N)cc3c2n1[C@H]1[C@H]2CN[C@@H]1C2	3 nM	104 nM	1130 nM	0.04 nM	–	–	–
Cc1cc(-c2nc3c(F)c(-c4cccc5ccc(F)cc45)c(CCC#N)cc3c3c2cc([C@@H](C)N2CCOCC2=O)n3[C@H]2[C@H]3CN[C@@H]2C3)ccn1	2.1 nM	7.5 nM	103 nM	0.94 nM	0.6 ×10⁻⁶ cm/s	> 18.3 mL/min/kg	–
CC(Oc1nc2c(F)c(-c3cc(O)cc4ccccc34)c(CCC#N)cc2c2c1cc(CCC(=O)N(C)C)n2[C@H]1[C@H]2CN[C@@H]1C2)C1CCCN1C (single isomer, unassigned)	3.6 nM	54 nM	2620 nM	0.1 nM	–	–	–
CN(C)C1CN(c2nc3c(F)c(-c4cc(O)cc5ccccc45)c(Cl)cc3c3c2ncn3[C@H]2[C@H]3CN[C@@H]2C3)C1	671 nM	–	–	–	–	–	–
CN(C)C(=O)CCc1nc2c(N3CC(N(C)C)C3)nc3c(F)c(-c4cc(O)cc5ccccc45)c(CCC#N)cc3c2n1[C@H]1[C@H]2CN[C@@H]1C2	2.9 nM	127 nM	977 nM	0.02 nM	–	–	–
CN(C)C1CN(c2nc(N3CCNCC3)c3cc(Cl)c(-c4cc(O)cc5ccccc45)c(F)c3n2)C1	8000 nM	–	–	–	–	–	–
Cc1nc2c(F)c(-c3cccc4ccc(F)cc34)c(CCC#N)cc2c2c1cc(CN1CCCCC1=O)n2[C@H]1[C@H]2CN[C@@H]1C2	6.1 nM	39 nM	1030 nM	–	0.7 ×10⁻⁶ cm/s	> 18.3 mL/min/kg	–
CN(C)C(=O)CCc1nc2c(N3CC(C)(N(C)C)C3)nc3c(F)c(-c4cc(O)cc5ccccc45)c(CCC#N)cc3c2n1[C@H]1[C@H]2CN[C@@H]1C2	2.9 nM	92 nM	1240 nM	0.031 nM	–	–	–
CN(C)C1CN(c2nc(N3CC4CCC(C3)N4)c3cc(Cl)c(-c4cc(O)cc5ccccc45)c(F)c3n2)C1	704 nM	–	–	–	–	–	–
Cc1cc(-c2nc3c(F)c(-c4cccc5ccc(F)cc45)c(CCC#N)cc3c3c2cc(CN2CCOCC2=O)n3[C@H]2[C@H]3CN[C@@H]2C3)ccn1	6.9 nM	36 nM	565 nM	1.2 nM	1.6 ×10⁻⁶ cm/s	16.7 mL/min/kg	QH (Primates [7]): 37%; bioavailability [8]: 0%; CL (Primates [9]): 16.2 mL/min/kg; Cmax [10]: 41.5 nM; half-life [11]: 3.5 h; QH [12]: > 100%; half-life [13]: 8.4 h; bioavailability [14]: 11%; AUC (Primates [15]): Below_limit_of_detection; AUC at 24 h [16]: 0.108 µM·h; Cmax [17]: 2.5 nM
CC(=O)Nc1cccc(-n2c(=O)n(C3CC3)c(=O)c3c(Nc4ccc(I)cc4F)n(C)c(=O)c(C)c32)c1 [TRAMETINIB]	–	–	–	–	–	–	inhibition in vivo at 6 mg/kg [18]: 99%
Cc1nc2c(F)c(-c3cc(O)cc4ccccc34)c(CCC#N)cc2c2c1cc(CN1CCCCC1=O)n2[C@H]1[C@H]2CN[C@@H]1C2	3.5 nM	45 nM	597 nM	–	–	–	–
N#CCCc1cc2c(nc(-n3cncn3)c3cc(CN4CCOCC4=O)n([C@H]4[C@H]5CN[C@@H]4C5)c32)c(F)c1-c1cccc2ccc(F)cc12	3.7 nM	10 nM	519 nM	0.84 nM	1.7 ×10⁻⁶ cm/s	> 18.3 mL/min/kg	–
Cc1cnc(-c2nc3c(F)c(-c4cccc5ccc(F)cc45)c(CCC#N)cc3c3c2cc([C@@H](C)N2CCOCC2=O)n3[C@H]2[C@H]3CN[C@@H]2C3)cn1	2.8 nM	6.8 nM	55 nM	1.5 nM	1.4 ×10⁻⁶ cm/s	> 18.3 mL/min/kg	half-life [19]: 4.9 h; bioavailability [8]: 2%; half-life [20]: 2.5 h; AUC at 24 h [21]: 0.085 µM·h; Cmax [22]: 24 nM; bioavailability [14]: 20%; QH [23]: > 100%; QH (Primates [24]): 39%; Cmax [25]: 7.2 nM; AUC [26]: 0.068 µM·h
Cc1cc2c(nc(N3CC(N(C)C)C3)c3nc(CCC(=O)N(C)C)n([C@H]4[C@H]5CN[C@@H]4C5)c32)c(F)c1-c1cc(O)cc2ccccc12	12 nM	1300 nM	–	3 nM	–	–	–
N#CCCc1cc2c(nc(OC[C@@]34CCCN3C[C@H](F)C4)c3cc(CCC(=O)N4CCC4)n([C@@H]4[C@H]5CN[C@@H]4C5)c32)c(F)c1-c1cccc2ccc(F)cc12	–	62 nM	1100 nM	0.24 nM	–	–	–
N#CCCc1cc2c(nc(-c3ccncn3)c3cc(CN4CCOCC4=O)n([C@H]4[C@H]5CN[C@@H]4C5)c32)c(F)c1-c1cccc2ccc(F)cc12	3.8 nM	17 nM	626 nM	–	1.1 ×10⁻⁶ cm/s	11.7 mL/min/kg	efflux ratio at 2 h, 50 µM [27]: 20
CC(Oc1nc2c(F)c(-c3cc(O)cc4ccccc34)c(CCC#N)cc2c2c1nc(CCC(=O)N(C)C)n2[C@H]1[C@H]2CN[C@@H]1C2)C1CCCN1C (single isomer, unassigned)	15 nM	1240 nM	–	–	–	–	–
CCOc1nc2c(F)c(-c3cc(O)cc4ccccc34)c(CCC#N)cc2c2c1cc(CN1CCCCC1=O)n2[C@H]1[C@H]2CN[C@@H]1C2	2.6 nM	21 nM	2350 nM	0.05 nM	0.2 ×10⁻⁶ cm/s	> 18.3 mL/min/kg	–
CCOc1nc2c(F)c(-c3cc(O)cc4ccccc34)c(CCC#N)cc2c2c1cc(CCC(=O)N(C)C)n2[C@H]1[C@H]2CN[C@@H]1C2	3.8 nM	28 nM	492 nM	0.26 nM	0.2 ×10⁻⁶ cm/s	> 18.3 mL/min/kg	–
Cc1nc2c(F)c(-c3cccc4ccc(F)cc34)c(CCC#N)cc2c2c1cc(CN1CCOCC1=O)n2[C@H]1[C@H]2CN[C@@H]1C2	2.7 nM	7.2 nM	677 nM	–	0.7 ×10⁻⁶ cm/s	> 18.3 mL/min/kg	–
CN(C)C(=O)CCc1cc2c(OC[C@@]34CCCN3C[C@H](F)C4)nc3c(F)c(-c4cc(O)cc5ccccc45)c(CCC#N)cc3c2n1[C@H]1[C@H]2CN[C@@H]1C2	2.1 nM	20 nM	410 nM	< 0.001 nM	< 0.1 ×10⁻⁶ cm/s	> 18.3 mL/min/kg	–
CCOc1nc2c(F)c(-c3cccc4ccc(F)cc34)c(CCC#N)cc2c2c1cc(CCC(=O)N(C)C)n2[C@H]1[C@H]2CN[C@@H]1C2	391 nM	–	–	–	–	11.7 mL/min/kg	–

From ChEMBL document CHEMBL6087482, “Discovery of INCB159020, an Orally Bioavailable KRAS G12D Inhibitor” (J Med Chem, 2025)
